# Assay results as given in patent US20230365625A1, “METHODS FOR TREATING AND/OR PREVENTING UNDESIRABLE SEQULAE OF NASAL TURBINOPLASTY OR FUNCTIONAL ENDOSCOPIC SINUS SURGERY” (3-D Matrix, Ltd., priority 2022, published 2023).
# “And” between values parts separate entries of the source, which are not always exact repeats. Identical values can stand only once. “Also recorded” adds a separate entry of the source.
# Experiments:
# [1] = RADA16 2.5%, IEIK13 1.3%, QLEL12 0.15% in water; result in words; cited from earlier work
# [2] = test system: nasal mucosal injuries on the middle turbinate and opposing nasal septum; assay: Endoscopic grading of synechiae/adhesion formation at day 14 and day 42, sheep model; assay type: in vivo, Merino sheep; design: key to Adhesion score day 14 / Adhesion score day 42: 0: No intranasal adhesions/synechiae; 1: Intranasal adhesion extends less than 25% to septum; Intranasal adhesion extends 25-50% to septum; 3: Intranasal adhesion extends more than 50% to septum; 4: Completely formed adhesion/synechiae extending to septum; conditions: for Number of sites, synechiae Grade 0 / Number of sites, synechiae Grade 1 / Number of sites, synechiae Grade 2 / Number of sites, synechiae Grade 3 / Number of sites, synechiae Grade 4: 20 sites per group
# Experimental: Post-operative observations—Post recovery from anesthesia, the animals were returned to their pens with ongoing daily monitoring for 14 days, including bloody nasal discharge, temperature, and food and water intake. On each postoperative day, the animals were examined externally by an independent observer, with no involvement in the operation, for the presence of bloody nasal discharges. External blood was cleaned off after each examination followed with irrigation of each nostril using 20 ml of saline solution. Regular irrigation of the nose and sinuses is standard in post-operative care following nasal surgery. The sheep were sedated and examined via endoscope again on day 14 for the presence of adhesions and graded by an independent observer using the grading scheme below for sheep nasal adhesions. Representative endoscopic images for sites (two sites/sides per sheep) treated with PuraSinus (SEQ ID NO:1) are shown in FIG. 1 and untreated control sites are shown in FIG. 2, respectively. The sheep were euthanized at day 42, with a necropsy performed by the same independent observer grading intranasal adhesion formation and extension. […] [table]
# [3] = test system: turbinate reduction surgery (TRS/Turbinoplasty); conditions: first follow-up at four weeks; result in words; cited from earlier work
# [4] = test system: nasal mucosal injuries on the middle turbinate and opposing nasal septum; assay: Intra-operative time to hemostasis, sheep endoscopic nasal surgery model; assay type: in vivo, Merino sheep
# Experimental: Surgical Methods—On the day prior to surgery, the animals were weighed, and each nostril was randomly assigned by computer randomization to receive PuraSinus, FLOSEAL or no treatment to each nostril after the surgical turbinoplasty. Each animal had food withheld for 24 hours and water withheld for 8 to 12 hours prior to the day of surgery as per the standard anesthetic procedure. The animals were sedated with a weight adjusted dose of intravenous diazepam. Following sedation, a percutaneous jugular catheter was inserted and secured, with induction achieved by further weight adjusted doses of intravenous diazepam and ketamine. The animals were placed in sternal recumbency for insertion of a size-appropriate endotracheal tube. Anesthesia was maintained through inhaled 1-2% isofluorane with parenteral propofol and ketamine given when necessary. Each animal was then given a prophylactic dose of long-acting antibiotic, weight adjusted oxytetracycline to cover for postoperative infections. The nasal cavity was prepared by packing with surgical pledgets soaked in 1% lignocaine and phenylephrine mixture. The middle turbinate was infiltrated with the same lignocaine/phenylephrine mixture via a small gauge needle in numerous sites over the middle turbinate. The use of vasoconstrictors and decongestants such as lignocaine and phenylephrine both topically and injected locally is standard pre-operatively in patients undergoing turbinoplasty (Ahmed S. et al., J. Coll. Physicians Surg. Pak. 26(6): 531-2 (2016)) The animals' vital signs were monitored throughout the procedure.
# Prior to making incisions, all sheep were first examined under endoscope to screen for any nasal septum deviations. Only animals that had straight septum and uniform space between septum and middle turbinate were used. […]
# Intraoperative observations—The degree of bleeding/hemostasis was assessed by an independent observer who was blinded to the appearance of FLOSEAL and PuraSinus (SEQ ID NO:1), and to the background of these two hemostatic agents. […]
# [5] = test system: gastrointestinal endoscopic procedures and cardiovascular surgery; conditions: 2.5% w/v in water, topical hemostat; cited from earlier work
# [6] = test system: punch hole injuries to the liver; conditions: pig, in vivo; cited from earlier work
smiles,measurement,setting,value
"CC(=O)N[C@@H](CCCNC(=N)N)C(=O)N[C@@H](C)C(=O)N[C@@H](CC(=O)O)C(=O)N[C@@H](C)C(=O)N[C@@H](CCCNC(=N)N)C(=O)N[C@@H](C)C(=O)N[C@@H](CC(=O)O)C(=O)N[C@@H](C)C(=O)N[C@@H](CCCNC(=N)N)C(=O)N[C@@H](C)C(=O)N[C@@H](CC(=O)O)C(=O)N[C@@H](C)C(=O)N[C@@H](CCCNC(=N)N)C(=O)N[C@@H](C)C(=O)N[C@@H](CC(=O)O)C(=O)N[C@@H](C)C(N)=O [PuraSinus, Ac-RADARADARADARADA-NH2]",Effect of gamma-irradiation sterilization,[1],enhanced the rheological properties
same,Reduction of two-week synechiae score versus Controls,[2]; 2 weeks,91%
same,Reduction of two-week synechiae score versus Gelatin-thrombin treatment,[2]; 2 weeks,92%
same,Reduction of six-week synechiae score,[2]; 6 weeks,100%
same,Sites in which synechiae occurred,[2]; at 2 weeks,20%
same,Sites in which synechiae occurred,[2]; at 6 weeks,0%
same,Adhesion score day 42,"[2]; individual site, grade 0-4",0
same,Adhesion score day 14,"[2]; individual site, grade 0-4, listed as P",0 (16×) and 1 (Intranasal adhesion extends less than 25% to septum) (3×) and 2 (Intranasal adhesion extends 25-50% to septum)
same,Two-week synechiae score,"[2]; maximum 4 points, mean±SD",0.3±0.6 points
same,Synechiae formation compared to FLOSEAL and untreated control,"[2]; sheep, result in words",lowest observed synechiae formation; also recorded: more effective in inhibiting the formation of synechiae; also recorded: statistically significant lower incidence of adhesions; also recorded: significantly reduced synechiae formation
same,"Number of sites, synechiae Grade 0",[2]; six weeks post-surgery,20
same,"Number of sites, synechiae Grade 1",[2]; six weeks post-surgery,0
same,"Number of sites, synechiae Grade 2",[2]; six weeks post-surgery,0
same,"Number of sites, synechiae Grade 3",[2]; six weeks post-surgery,0
same,"Number of sites, synechiae Grade 4",[2]; six weeks post-surgery,0
same,"Number of sites, synechiae Grade 0",[2]; two weeks post-surgery,16
same,"Number of sites, synechiae Grade 1",[2]; two weeks post-surgery,3
same,"Number of sites, synechiae Grade 2",[2]; two weeks post-surgery,1
same,"Number of sites, synechiae Grade 3",[2]; two weeks post-surgery,0
same,"Number of sites, synechiae Grade 4",[2]; two weeks post-surgery,0
same,Postoperative bleeding or adhesion formation,[3],none of their patients experiencing bleeding or adhesion formation postoperatively
same,Time to hemostasis,"[4]; individual surgical site (sheep number, nostril), listed as P",120 sec and 102 sec and 125 sec and 130 sec (3×) and 140 sec and 150 sec (2×) and 70 sec and 220 sec and 85 sec and 180 sec and 190 sec and 210 sec and 95 sec and 290 sec and 58 sec and 131 sec and 87 sec
same,Intra-operative hemostasis time,"[4]; sheep, mean±SD, 20 sites per group",139.7 ± 56.2 s
same,Hemostasis compared to untreated control,"[4]; sheep, result in words",statistically significant reduction in time to hemostasis; also recorded: improved hemostasis
same,Successful hemostasis rates,[5],72.6-100%
same,Inflammatory cell infiltration due to the gel in the wound,[6],absence if inflammatory cell infiltration
